For 13 compounds, IC50 results are on record in patent publication US20250195521A1 (Revolution Medicines, Inc., priority 2020, published 2025).

“And” between values parts separate entries of the source, which are not always exact repeats. Equal entries are not always repeated.

What is called IC50 is the concentration that gives 50% inhibition.

The target in one test is KRAS G12V (Homo sapiens (Human), UniProt P01116+P62937, G12V). Kind of test: Ras-Raf disruption/FRET/MOA assay (BRAF RBD, Cyclophilin A). Format: biochemical. The settings on record: read-out: KRAS G12V FRET IC50. Put shortly: (§1)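 TR-FRET read after 1.5 h with 10 nM anti-His Eu-W1024 and 50 nM anti-GST APC, following 3 h at 25 °C of GMPPNP-loaded His6-Ras (12.5 nM), GST-BRAF RBD (50 nM) and Cyclophilin A (25 μM) with compound from 30 μM final, 10 points, 3-fold. IC50 reported; pH 7.3 HEPES, 100 mM NaCl.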

The target in the next test is KRAS G13D (Homo sapiens (Human), UniProt P01116+P62937, G13D). The test is described as above. The test is classed as biochemical. Particulars: read-out: KRAS G13D FRET data IC50. Put shortly: as §1
The next test concerns the target KRAS G12S (Homo sapiens (Human), UniProt P01116+P62937, G12S). Described as above. The test is classed as biochemical. The settings on record: read-out: KRAS G12S FRET IC50. In outline:
as §1

The next test concerns the target KRAS WT (Homo sapiens (Human), UniProt P01116+P62937). The description is as above. Format: biochemical. Particulars: read-out: KRAS WT FRET data IC50. Put shortly: as §1
Another test has as its target KRAS G13C (Homo sapiens (Human), UniProt P01116+P62937, G13C). Described as above. Format: biochemical. Particulars: read-out: KRAS G13C FRET IC50. Put shortly:
as §1

Another test concerns the target NRAS G12C (Homo sapiens (Human), UniProt P01111+P62937, G12C). Described as above. The test is classed as biochemical. Particulars: read-out: NRAS G12C FRET data IC50. Put shortly: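 TR-FRET readout: anti-His Eu-W1024 (10 nM) and anti-GST allophycocyanin (50 nM) added after 3 h, 25° C compound incubation, then 1.5 h more. Decrease in FRET ratio versus DMSO wells marks Ras:RAF disruption; IC50 reported.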

Another test has as its target KRAS G12C (Homo sapiens (Human), UniProt P01116+P62937, G12C). The description is as above. Format: biochemical. The settings on record: read-out: KRAS G12C FRET IC50. Put shortly:
as §1

For a further test, the target named is KRAS G12D (Homo sapiens (Human), UniProt P01116+P62937, G12D). The test is described as above. The test is classed as biochemical. Particulars: read-out: KRAS G12D FRET IC50. In outline: as §1
A further test relates to NCI-H358 (K-Ras G12C). Kind of test: CellTiter-Glo cell viability assay, NCI-H358. The test is classed as cell-based, human. Particulars: Homo sapiens, NCI-H358, 120 h, 5-day treatment; read-out: H358 Cell Viability assay data (K-Ras G12C, IC50). In outline:
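NCI-H358 (K-Ras G12C) cells treated with compound dispensed directly into plates. CellTiter-Glo luminescence read on day 5 after ~30 min equilibration to room temperature. Signal normalised to DMSO average ×100, then fitted with a four-parameter logistic model.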
A general note: In ATP-based viability assays light output follows the ATP content of the culture.

Chain of KRAS G13D (P01116 other isoform, or with tags, fused parts or gaps G13D): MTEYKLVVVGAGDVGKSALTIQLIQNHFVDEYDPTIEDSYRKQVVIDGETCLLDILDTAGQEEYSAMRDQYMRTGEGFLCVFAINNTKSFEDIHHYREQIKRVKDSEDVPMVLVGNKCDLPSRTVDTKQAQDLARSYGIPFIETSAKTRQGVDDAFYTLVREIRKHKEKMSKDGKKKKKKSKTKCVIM
Chain of KRAS G13D (P62937 whole entry): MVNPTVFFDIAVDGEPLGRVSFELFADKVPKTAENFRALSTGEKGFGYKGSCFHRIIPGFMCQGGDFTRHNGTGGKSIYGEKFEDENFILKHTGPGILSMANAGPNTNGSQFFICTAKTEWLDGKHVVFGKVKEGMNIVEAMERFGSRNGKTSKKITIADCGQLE
Chain of KRAS WT (P01116 other isoform, or with tags, fused parts or gaps): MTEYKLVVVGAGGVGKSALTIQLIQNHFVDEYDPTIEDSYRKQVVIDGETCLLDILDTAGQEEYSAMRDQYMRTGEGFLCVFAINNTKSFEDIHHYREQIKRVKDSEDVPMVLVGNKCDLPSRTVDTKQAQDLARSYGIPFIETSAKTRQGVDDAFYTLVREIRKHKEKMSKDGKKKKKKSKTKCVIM
Chain of KRAS WT (P62937 whole entry): as the sequence (P62937 whole entry) above
Chain of KRAS G13C (P01116 other isoform, or with tags, fused parts or gaps G13C): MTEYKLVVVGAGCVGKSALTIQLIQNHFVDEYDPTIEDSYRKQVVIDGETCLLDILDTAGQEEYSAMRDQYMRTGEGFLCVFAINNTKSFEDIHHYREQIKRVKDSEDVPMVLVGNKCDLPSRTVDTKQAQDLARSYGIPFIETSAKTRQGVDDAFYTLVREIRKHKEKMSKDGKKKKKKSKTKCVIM
Chain of KRAS G13C (P62937 whole entry): as the sequence (P62937 whole entry) above
Chain of NRAS G12C (P01111 whole entry G12C): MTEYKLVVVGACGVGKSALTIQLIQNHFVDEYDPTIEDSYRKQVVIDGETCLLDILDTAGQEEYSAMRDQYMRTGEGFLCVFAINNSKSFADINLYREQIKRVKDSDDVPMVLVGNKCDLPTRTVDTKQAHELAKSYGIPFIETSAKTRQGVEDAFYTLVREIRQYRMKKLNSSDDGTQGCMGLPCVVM
Chain of NRAS G12C (P62937 whole entry): as the sequence (P62937 whole entry) above
Chain of KRAS G12D (P01116 other isoform, or with tags, fused parts or gaps G12D): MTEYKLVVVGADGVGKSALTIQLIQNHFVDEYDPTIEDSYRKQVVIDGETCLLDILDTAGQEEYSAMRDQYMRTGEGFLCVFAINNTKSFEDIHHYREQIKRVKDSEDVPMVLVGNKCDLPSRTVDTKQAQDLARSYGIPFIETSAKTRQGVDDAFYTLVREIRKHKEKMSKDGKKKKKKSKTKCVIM
Chain of KRAS G12D (P62937 whole entry): as the sequence (P62937 whole entry) above
Chain of KRAS G12C (P01116-2 other isoform, or with tags, fused parts or gaps G12C): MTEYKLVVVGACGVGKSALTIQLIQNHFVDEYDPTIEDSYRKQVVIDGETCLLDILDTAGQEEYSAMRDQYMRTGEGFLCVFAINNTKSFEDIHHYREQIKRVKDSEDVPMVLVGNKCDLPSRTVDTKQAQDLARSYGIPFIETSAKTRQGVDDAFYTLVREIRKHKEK
Chain of KRAS G12C (P62937 whole entry): as the sequence (P62937 whole entry) above
Chain of KRAS G12S (P01116 other isoform, or with tags, fused parts or gaps G12S): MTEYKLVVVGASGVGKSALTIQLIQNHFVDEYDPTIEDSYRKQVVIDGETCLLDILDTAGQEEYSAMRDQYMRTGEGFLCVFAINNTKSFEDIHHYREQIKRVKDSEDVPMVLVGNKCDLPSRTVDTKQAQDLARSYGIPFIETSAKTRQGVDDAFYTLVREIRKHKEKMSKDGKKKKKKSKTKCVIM
Chain of KRAS G12S (P62937 whole entry): as the sequence (P62937 whole entry) above
Chain of KRAS G12V (P01116 other isoform, or with tags, fused parts or gaps G12V): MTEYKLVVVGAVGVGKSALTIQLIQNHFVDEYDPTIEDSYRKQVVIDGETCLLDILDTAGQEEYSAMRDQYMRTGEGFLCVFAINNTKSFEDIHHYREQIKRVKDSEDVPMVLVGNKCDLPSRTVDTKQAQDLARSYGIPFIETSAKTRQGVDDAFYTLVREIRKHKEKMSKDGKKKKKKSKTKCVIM
Chain of KRAS G12V (P62937 whole entry): as the sequence (P62937 whole entry) above

For `CCn1c(-c2cccnc2[C@H](C)OC)c2c3cc(ccc31)-c1cccc(c1)C[C@H](NC(=O)[C@H](C(C)C)N(C)C(=O)[C@H]1CCNC1)C(=O)N1CCC[C@H](N1)C(=O)OCC(C)(C)C2` [Compound A119], the IC50 on KRAS G12V was > 10000 nM; at KRAS G13D it was 100 to 1000 nM; on KRAS G12S, 100 to 1000 nM; on KRAS WT, 1000 to 10000 nM; on KRAS G13C it was 100 to 1000 nM; at NRAS G12C, 1000 to 10000 nM. Also, the IC50 at KRAS G12C and on KRAS G12D was 1000 to 10000 nM throughout.
In the case of `CCn1c(-c2cccnc2[C@H](C)OC)c2c3cc(ccc31)-c1cc(O)cc(c1)C[C@H](NC(=O)[C@H](C(C)C)N(C)C(=O)C1CN3CCCN1CC3)C(=O)N1CCC[C@H](N1)C(=O)OCC(C)(C)C2` (some centres unmarked) [Compound A404], the IC50 at KRAS G12V is 1000 to 10000 nM; on KRAS G13D, 100 to 1000 nM; at KRAS G12S it was 100 to 1000 nM; on KRAS WT, 100 to 1000 nM; on KRAS G13C, 100 to 1000 nM; on NRAS G12C it was 100 to 1000 nM. The results for the IC50 on KRAS G12C, at KRAS G12D and in the test on NCI-H358 (K-Ras G12C) were 100 to 1000 nM, 100 to 1000 nM and 10 to 100 nM, respectively.
Regarding `CCn1c(-c2cccnc2[C@H](C)OC)c2c3cc(ccc31)-c1cc(O)cc(c1)C[C@H](NC(=O)C(=C(C)C)N(C)C(C)=O)C(=O)N1CCC[C@H](N1)C(=O)OCC(C)(C)C2` [Compound A142], the IC50 at KRAS G12V was in the range of 1000 to 10000 nM; on KRAS G13D it was 1000 to 10000 nM; on KRAS G12S, 1000 to 10000 nM; at KRAS WT, 1000 to 10000 nM; at KRAS G13C, 100 to 1000 nM; at NRAS G12C, 1000 to 10000 nM. Further, the results for the IC50 on KRAS G12C, at KRAS G12D and in the test with NCI-H358 (K-Ras G12C) were 1000 to 10000 nM, > 10000 nM and 100 to 1000 nM, respectively.
For `CCn1c(-c2cccnc2[C@H](C)OC)c2c3cc(ccc31)-c1cccc(c1)C[C@H](NC(=O)[C@H](C(C)C)N(C)C(=O)C1COC1)C(=O)N1CCC[C@H](N1)C(=O)OCC(C)(C)C2` [Compound A246], the IC50 at KRAS G12V, on KRAS G13D, at KRAS G12S, on KRAS WT, on KRAS G13C and at NRAS G12C was 1000 to 10000 nM throughout. In addition, the IC50 on KRAS G12C was 1000 to 10000 nM; on KRAS G12D it was > 10000 nM; in the test with NCI-H358 (K-Ras G12C) it was < 10 nM.
As for `CCn1c(-c2cccnc2[C@H](C)OC)c2c3cc(ccc31)-c1cc(O)cc(c1)C[C@H](NC(=O)[C@H](C(C)C)N(C)C(=O)C1CNCCNC1)C(=O)N1CCC[C@H](N1)C(=O)OCC(C)(C)C2` [Compound A432], the IC50 at KRAS G12V is 1000 to 10000 nM; at KRAS G13D, 10 to 100 nM; at KRAS G12S, 100 to 1000 nM; at KRAS WT, 100 to 1000 nM; on KRAS G13C, 10 to 100 nM; on NRAS G12C, 10 to 100 nM. For the same compound, the IC50 lay within 10 to 100 nM on KRAS G12C, 100 to 1000 nM at KRAS G12D and 10 to 100 nM in the test on NCI-H358 (K-Ras G12C).
In the case of `CCn1c(-c2cccnc2[C@H](C)OC)c2c3cc(ccc31)-c1cc(O)cc(c1)C[C@H](NC(=O)[C@H](C(C)C)N(C)C(=O)[C@H]1CCN(C3CC3)C1)C(=O)N1CCC[C@H](N1)C(=O)OCC(C)(C)C2` [Compound A175], the IC50 on KRAS G12V was > 10000 nM; at KRAS G13D, 1000 to 10000 nM; at KRAS G12S, 1000 to 10000 nM; on KRAS WT, 1000 to 10000 nM; on KRAS G13C, 100 to 1000 nM; at NRAS G12C, 1000 to 10000 nM. The values for the IC50 at KRAS G12C, on KRAS G12D and in the test with NCI-H358 (K-Ras G12C) were 1000 to 10000 nM, 1000 to 10000 nM and < 10 nM, respectively.
In the case of `CCn1c(-c2cccnc2[C@H](C)OC)c2c3cc(ccc31)-c1cc(cc3nc[nH]c13)C[C@H](NC(=O)[C@H](C(C)C)N(C)C(C)=O)C(=O)N1CCC[C@H](N1)C(=O)OCC(C)(C)C2` [Compound A153], the IC50 at KRAS G12V, on KRAS G13D, on KRAS G12S, on KRAS WT, on KRAS G13C and on NRAS G12C was > 10000 nM in each case. Besides, the IC50 on KRAS G12D is > 10000 nM; with NCI-H358 (K-Ras G12C), 100 to 1000 nM.
On to `CCn1c(-c2cccnc2[C@H](C)OC)c2c3cc(ccc31)-c1csc(n1)C[C@H](NC(=O)[C@H](C(C)C)N(C)C(=O)N1CC(N3CCOCC3)C1)C(=O)N1CCC[C@H](N1)C(=O)OCC(C)(C)C2` [Compound A338], for which the IC50 at KRAS G12V is 100 to 1000 nM; at KRAS G13D, 100 to 1000 nM; on KRAS G12S it was 100 to 1000 nM; on KRAS WT it was 100 to 1000 nM; at KRAS G13C, 100 to 1000 nM; on NRAS G12C it was 10 to 100 nM. The IC50 at KRAS G12C was in the range of 10 to 100 nM; on KRAS G12D, 1000 to 10000 nM; in the test with NCI-H358 (K-Ras G12C) it was 10 to 100 nM.
Turning to `CCn1c(-c2cnccc2COC)c2c3cc(ccc31)-c1cc(O)cc(c1)C[C@H](NC(=O)[C@H](C(C)C)N(C)C(=O)N1CCNCC1)C(=O)N1CCC[C@H](N1)C(=O)OCC(C)(C)C2` [Compound A255], the IC50 was in the range of 100 to 1000 nM on KRAS G12V; 10 to 100 nM at KRAS G13D; 100 to 1000 nM at KRAS G12S; 100 to 1000 nM at KRAS WT; 10 to 100 nM on KRAS G13C; 100 to 1000 nM on NRAS G12C. The IC50 at KRAS G12C is 10 to 100 nM; on KRAS G12D it was 100 to 1000 nM; in the test on NCI-H358 (K-Ras G12C), < 10 nM.
Take `CCn1c(-c2cccnc2[C@H](C)OC)c2c3cc(ccc31)-c1csc(n1)C[C@H](NC(=O)[C@H](C(C)C)N(C)C(=O)N1C[C@H](C)N(C)C[C@H]1C)C(=O)N1CCC[C@H](N1)C(=O)OCC(C)(C)C2` [Compound A300]: the IC50 at KRAS G12V, at KRAS G13D, at KRAS G12S, at KRAS WT, on KRAS G13C and at NRAS G12C was 1000 to 10000 nM throughout. Further, the IC50 at KRAS G12C and at KRAS G12D was 1000 to 10000 nM in each case.
As to `CCn1c(-c2cccnc2[C@H](C)OC)c2c3cc(ccc31)-c1cc(cc(S(C)(=O)=O)c1)C[C@H](NC(=O)[C@H](C(C)C)N(C)C(C)=O)C(=O)N1CCC[C@H](N1)C(=O)OCC(C)(C)C2` [Compound A154], the IC50 at KRAS G12V, on KRAS G13D, on KRAS G12S, at KRAS WT, at KRAS G13C and at NRAS G12C was > 10000 nM in each case. Besides, the IC50 was > 10000 nM at KRAS G12D and 10 to 100 nM in the test with NCI-H358 (K-Ras G12C).
Turning to `CCn1c(-c2cccnc2[C@H](C)OC)c2c3cc(ccc31)-c1cc(O)cc(c1)C[C@H](NC(=O)[C@H](C(C)C)N(C)C(=O)C1CC(=O)N(C3CC3)C1)C(=O)N1CCC[C@H](N1)C(=O)OCC(C)(C)C2` (some centres unmarked) [Compound A252], the IC50 is 100 to 1000 nM and 10 to 100 nM at KRAS G12V; 100 to 1000 nM and 10 to 100 nM on KRAS G13D; 10 to 100 nM on KRAS G12S; 10 to 100 nM at KRAS WT; 10 to 100 nM on KRAS G13C; 10 to 100 nM at NRAS G12C. In addition, the IC50 at KRAS G12C fell in the range of 10 to 100 nM; at KRAS G12D, 100 to 1000 nM; with NCI-H358 (K-Ras G12C), 10 to 100 nM.
For `CCn1c(-c2cccnc2[C@H](C)OC)c2c3cc(ccc31)-c1cc(O)cc(c1)C[C@H](NC(=O)[C@H](C(C)C)N(C)C(=O)[C@H]1OCC[C@H]1c1ccccc1)C(=O)N1CCC[C@H](N1)C(=O)OCC(C)(C)C2` [Compound A425], the IC50 is 100 to 1000 nM on KRAS G12V; 1000 to 10000 nM at KRAS G13D; 1000 to 10000 nM at KRAS G12S; 1000 to 10000 nM at KRAS WT; 100 to 1000 nM on KRAS G13C; 1000 to 10000 nM on NRAS G12C. For the same compound, the IC50 at KRAS G12C was 100 to 1000 nM; at KRAS G12D, 1000 to 10000 nM; with NCI-H358 (K-Ras G12C), < 10 nM.
